From publication PMC4598832 (Scientific Reports, 2015)
Changes are numbered by the printed parent chain. Values joined by “and” are separate entries in the source; they are usually repeats but may differ in a detail not shown here. Equal entries are not always repeated. “Also recorded” adds a separate entry of the source. Where two headings read alike, the source gives them in different places.

Assays:
[1] = target: T1, Olfr73 (mOR-EG) wt (Mus musculus, UniProt Q920P2); experiment: cAMP reporter gene (SEAP) assay, Olfr73 wild type in Hana3A cells; type: cell-based
T1 construct: Rho (rhodopsin) tag; Myc; Flag; expressed in transfected cells; host or cells: Hana 3A cells
T1 sequence (Q920P2 1-313): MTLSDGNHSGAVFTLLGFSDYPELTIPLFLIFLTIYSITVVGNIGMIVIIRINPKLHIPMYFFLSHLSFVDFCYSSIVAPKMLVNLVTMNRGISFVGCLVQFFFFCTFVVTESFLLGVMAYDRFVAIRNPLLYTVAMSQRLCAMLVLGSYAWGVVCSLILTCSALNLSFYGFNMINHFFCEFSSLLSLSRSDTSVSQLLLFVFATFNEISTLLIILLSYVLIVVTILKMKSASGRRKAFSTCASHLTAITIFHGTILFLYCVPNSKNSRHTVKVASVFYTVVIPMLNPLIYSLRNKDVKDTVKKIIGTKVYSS

[2] = target: Olfr74 F260Y (Mus musculus, UniProt Q920P1, F260Y); experiment: cAMP reporter gene (SEAP) assay, Olfr74 F260Y in Hana3A cells; type: cell-based
Chain of Olfr74 F260Y (Q920P1 entry or part of it F260Y): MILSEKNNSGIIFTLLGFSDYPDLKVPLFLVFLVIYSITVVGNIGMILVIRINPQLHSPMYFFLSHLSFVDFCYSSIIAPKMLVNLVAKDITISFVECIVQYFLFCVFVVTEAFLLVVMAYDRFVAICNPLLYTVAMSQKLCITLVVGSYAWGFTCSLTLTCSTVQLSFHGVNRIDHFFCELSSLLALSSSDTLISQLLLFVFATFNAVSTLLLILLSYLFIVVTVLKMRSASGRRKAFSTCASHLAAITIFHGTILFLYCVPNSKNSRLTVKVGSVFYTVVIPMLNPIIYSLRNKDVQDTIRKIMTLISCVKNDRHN
Protocol: (§1) Confluent Hana 3A cells (35000 cells per well) cultured in a 96-well plate at 37 °C (Perkin-Elmer) were transfected with 0.15 μg of wild-type or mutated Olfr73 or Olfr74 encoding plasmid DNAs and 0.15 μg of the cAMP response element secreted alkaline phosphatase reporter plasmid (pCRE-SEAP) using Lipofectamine 2000 (Invitrogen). Cells were induced 8 h after transfection with cell medium containing the ligand, or cell medium alone. For screening compound library, stock solutions of odorants (0.2–1 M) were prepared from pure compounds either in dimethyl sulfoxide (DMSO, Sigma-Aldrich, Buchs, CH) or ethanol and were stored at −20 °C. Mixtures of 5 to 10 odorants prepared form stock solutions, were diluted in serum-free DMEM and applied to the cells 8 hours after transfection (<100 μM, final individual odorant concentration). Experiments were carried out in triplicates and in parallel with a mock control (cells transfected with non-coding plasmid DNA). A relative SEAP activity [(n-1) times mock level] was calculated for each odorant mixture and those that induced an activity larger than 1 were considered for further analysis.
(§2) For odorant dose-dependent measurements of cAMP signaling specific ligands were added at increasing concentrations and measured in duplicates. Odorant-induced responses were measured using the SEAP activity reporter assay 16 h after stimulation. An aliquot of supernatant from each well was then mixed with an equal volume of 1 M diethanolamine bicarbonate (pH 9.8) containing 20 mM p-nitrophenyl phosphate and 1 mM MgCl2 (Sigma). The kinetics of hydrolysis of p-nitrophenol phosphate by alkaline phosphatase was determined by measuring the absorbance at 410 nm using a multiwell plate reader (SpectraMax 360, Molecular Devices). To remove SEAP activity background noise from the measurements, the mean value of mock control SEAP activity (Supplementary Figures 8 and 9) was subtracted from the mean value of OR-induced SEAP activity for each odorant concentration. Dose response curves and EC50 values were then determined by fitting these points with the Hill equation using IGOR Pro software (WaveMetrics, Portland, OR, USA). Statistical significance of the differences in EC50 values was analyzed using a two-tailed Student’s t test. p values below 0.05 were considered as being significant.

[3] = target: T2, Olfr73 S113A-E208A-Y260F (Mus musculus, UniProt Q920P2, E208A/S113A/Y260F); experiment: cAMP reporter gene (SEAP) assay, Olfr73 triple mutant in Hana3A cells; type: cell-based
T2 construct: Rho (rhodopsin) tag; Myc; expressed in transfected cells; host or cells: Hana 3A cells
T2 sequence (Q920P2 1-313 S113A/E208A/Y260F): T1 sequence (Q920P2 1-313) with S113A, E208A, Y260F

[4] = target: T3, Olfr73 E208A (Mus musculus, UniProt Q920P2, E208A); experiment: cAMP reporter gene (SEAP) assay, Olfr73 E208A in Hana3A cells; type: cell-based
T3 construct: Rho (rhodopsin) tag; Myc; expressed in transfected cells; host or cells: Hana 3A cells
T3 sequence (Q920P2 1-313 E208A): T1 sequence (Q920P2 1-313) with E208A

[5] = tested on: Olfr74; set-up: method as in PMID 12767924; conditions: HEK cells ref 31; cited from earlier work
[6] = target: T4, Olfr74 (mOR-EV) wt (Mus musculus, UniProt Q920P1); experiment: cAMP reporter gene (SEAP) assay, Olfr74 wild type in Hana3A cells; type: cell-based; conditions: for activation of Olfr74 wild type: result in words
T4 sequence (Q920P1 1-318): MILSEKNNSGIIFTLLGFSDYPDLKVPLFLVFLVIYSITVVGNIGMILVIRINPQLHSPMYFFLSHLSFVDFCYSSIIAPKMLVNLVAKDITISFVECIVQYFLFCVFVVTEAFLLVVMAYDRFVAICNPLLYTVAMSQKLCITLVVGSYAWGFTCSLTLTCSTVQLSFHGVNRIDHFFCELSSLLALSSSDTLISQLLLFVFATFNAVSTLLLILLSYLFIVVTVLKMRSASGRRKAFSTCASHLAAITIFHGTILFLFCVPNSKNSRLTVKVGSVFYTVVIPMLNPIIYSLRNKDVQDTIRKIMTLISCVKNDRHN

[7] = target: T5, Olfr73 S113A (Mus musculus, UniProt Q920P2, S113A); experiment: cAMP reporter gene (SEAP) assay, Olfr73 S113A in Hana3A cells; type: cell-based
T5 construct: Rho (rhodopsin) tag; expressed in transfected cells; host or cells: Hana 3A cells
T5 sequence (Q920P2 1-313 S113A): T1 sequence (Q920P2 1-313) with S113A

[8] = target: Olfr74 A113S (Mus musculus, UniProt Q920P1, A113S); experiment: cAMP reporter gene (SEAP) assay, Olfr74 A113S in Hana3A cells; type: cell-based
Chain of Olfr74 A113S (Q920P1 entry or part of it A113S): as the sequence (Q920P1 entry or part of it F260Y) above, with A113S, Y260F counted along it
Protocol: as §1
as §2, with “To remove SEAP activity background noise from the measurements, the mean value of mock control SEAP activity (Supplementary Figures 8 and 9) was subtracted from the mean value of OR-induced SEAP activity for each odorant concentration.” left out

[9] = target: T6, Olfr73 Y260F (Mus musculus, UniProt Q920P2, Y260F); experiment: cAMP reporter gene (SEAP) assay, Olfr73 Y260F in Hana3A cells; type: cell-based
T6 construct: Rho (rhodopsin) tag; Myc; expressed in transfected cells; host or cells: Hana 3A cells
T6 sequence (Q920P2 1-313 Y260F): T1 sequence (Q920P2 1-313) with Y260F
Protocol: Confluent Hana 3A cells (35000 cells per well) cultured in a 96-well plate at 37 °C (Perkin-Elmer) were transfected with 0.15 μg of wild-type or mutated Olfr73 or Olfr74 encoding plasmid DNAs and 0.15 μg of the cAMP response element secreted alkaline phosphatase reporter plasmid (pCRE-SEAP) using Lipofectamine 2000 (Invitrogen). Cells were induced 8 h after transfection with cell medium containing the ligand, or cell medium alone. […] Experiments were carried out in triplicates and in parallel with a mock control (cells transfected with non-coding plasmid DNA).

[10] = tested on: Olfr74 A113S-A208E-F260Y; experiment: cAMP reporter gene (SEAP) assay, Olfr74 triple mutant in Hana3A cells; type: cell-based, mouse; conditions: result in words
Protocol: as §1, with “Mixtures of 5 to 10 odorants prepared form stock solutions, were diluted in serum-free DMEM and applied to the cells 8 hours after transfection (<100 μM, final individual odorant concentration). Experiments were carried out in triplicates and in parallel with a mock control (cells transfected with non-coding plasmid DNA).” left out
For odorant dose-dependent measurements of cAMP signaling specific ligands were added at increasing concentrations and measured in duplicates. Odorant-induced responses were measured using the SEAP activity reporter assay 16 h after stimulation. […] The kinetics of hydrolysis of p-nitrophenol phosphate by alkaline phosphatase was determined by measuring the absorbance at 410 nm using a multiwell plate reader (SpectraMax 360, Molecular Devices). […]

[11] = EC50 Olfr73 wt, Hana3A cells, SEAP reporter, dash in Table 1 = no measurable response
[12] = EC50 Olfr74 F260Y, Hana3A cells, SEAP reporter
[13] = dash in Table 1 = no measurable response, read-out: EC50 Olfr73 S113A-E208A-Y260F
[14] = Hana3A cells, SEAP reporter, read-out: EC50 Olfr73 E208A
[15] = dash in Table 1 = no measurable response, read-out: EC50 Olfr73 S113A
[16] = rounded values derived from Fig. 2 and Supplementary Fig. 4, unit inferred, read-out: EC50 Olfr73 (WT), Supplementary Table 1
[17] = EC50 Olfr74 (F260Y), Supplementary Table 1, rounded values derived from Fig. 2 and Supplementary Fig. 4, unit inferred
[18] = EC50 Olfr73 (E208A), Supplementary Table 1, rounded values derived from Fig. 2 and Supplementary Fig. 4, unit inferred
[19] = EC50 Olfr73 E208A, Hana3A cells, SEAP reporter
[20] = Hana3A cells, SEAP reporter, read-out: EC50 Olfr74 wt
[21] = rounded values derived from Fig. 2 and Supplementary Fig. 4, unit inferred, read-out: EC50 Olfr74 (WT), Supplementary Table 1
[22] = dash in Table 1 = no measurable response, read-out: EC50 Olfr73 Y260F
[23] = Hana3A cells, SEAP reporter, dash in Table 1 = no measurable response, read-out: EC50 Olfr73 wt
[24] = read-out: EC50 Olfr73 S113A-E208A-Y260F, dash in Table 1 = no measurable response
[25] = read-out: EC50 Olfr73 S113A, dash in Table 1 = no measurable response

With `CCOc1cc(C=O)ccc1O` [Ethyl vanillin, ethyl vanillin] the EC50 [1, 11] was 35 ± 4 µM, the EC50 [2, 12] was 171 ± 35 µM and the EC50 [3, 13] was > 100 µM. For the same compound, the EC50 [4, 14] was 147 ± 11 µM, the “cAMP signalling upon stimulation of Olfr74” value [5] was “no cAMP signalling” and the “activation of Olfr74 wild type” value ([6]; Hana3A cells, SEAP reporter, listed as ethyl vanillin) was “no detectable activation”. The “activation of Olfr74 wild type” value ([6]; Hana3A cells, SEAP reporter, listed as ethyl-vanillin) was “no response was detected; also recorded: do not activate” and the EC50 [7, 15] was 202 ± 44 µM.
With `CCC=CCC1=C(C)CCC1=O` [Jasmone, 3-methyl-2-(pent-2-enyl)-cyclopent-2-enone] the “activation of Olfr73 wild type” value ([1]; Hana3A cells, SEAP reporter, result in words) was “inactive”, the EC50 [1, 16] was > 100 µM and the EC50 [8] was 71 µM and ~70 µM. For the same compound, the EC50 [2, 17] was 10 µM, the EC50 [2, 12] was 8 µM and ~10 µM and the EC50 ([3]; EC50 Olfr73 S113A-E208A-Y260F, dash in Table 1 = no measurable response) was 83 ± 11 µM. The EC50 [4, 18] was 70 µM, the EC50 [4, 19] was 66 ± 9 µM and the EC50 [6, 20] was 28 µM and ~30 µM. For the same compound, the EC50 [6, 21] was 30 µM and the EC50 ([7]; EC50 Olfr73 S113A, dash in Table 1 = no measurable response) was > 100 µM.
In the case of `C/C=C/c1ccc(OC)c(OC)c1` [MIEG, methyl isoeugenol], the EC50 [9, 22] is reported as > 100 µM, the EC50 [1, 23] is reported as 131 ± 19 µM and the EC50 [2, 12] is reported as 406 ± 23 µM. For the same compound, the EC50 [3, 24] was > 100 µM, the EC50 [4, 19] was 10 ± 5 µM and the “activation of Olfr74 wild type” value ([6]; Hana3A cells, SEAP reporter) was “do not activate”. The EC50 [7, 25] was > 100 µM.
In the case of `COC(=O)c1ccc(O)c(OC)c1` [Methyl vanillate, methyl vanillate], the EC50 [9, 22] is reported as > 100 µM, the EC50 [1, 23] is reported as 240 µM and 241 µM and the EC50 [2, 12] is reported as 447 ± 36 µM. For the same compound, the EC50 [3, 13] was > 100 µM, the EC50 [4, 14] was 347 ± 32 µM and the “activation of Olfr74 wild type” value ([6]; Hana3A cells, SEAP reporter) was “do not activate”. The EC50 [7, 15] was > 100 µM.
For `C=C(C)[C@@H]1CCC2=CC(=O)C[C@@H](C)[C@]2(C)C1` [Nootkatone, nootkatone], the EC50 ([9]; read-out: EC50 Olfr73 Y260F, dash in Table 1 = no measurable response) was > 100 µM, the EC50 ([1]; EC50 Olfr73 (WT), Supplementary Table 1, rounded values derived from Fig. 2 and Supplementary Fig. 4, unit inferred) was > 100 µM and the EC50 [1, 11] was 225 ± 76 µM. The EC50 [8] was 78 µM and ~80 µM, the EC50 [2, 17] was 40 µM and the EC50 [2, 12] was 35 µM and ~40 µM. The EC50 [3, 24] was > 100 µM, the EC50 [4, 18] was > 100 µM and the EC50 [4, 19] was 277 ± 54 µM. The EC50 [6, 20] was 86 µM and ~90 µM, the EC50 [6, 21] was 90 µM and the EC50 [7, 25] was > 100 µM.
For `CC(C)=CC1CC(C)CCO1` (centres unmarked) [Rose Oxide, rose oxide], the EC50 [1, 23] was 35 ± 20 µM, the EC50 [1, 16] was 30 µM and the EC50 [8] was > 100 µM. The EC50 [2, 17] was 40 µM, the EC50 [2, 12] was 42 µM and ~40 µM and the EC50 [3, 13] was > 100 µM. The “activation of Olfr74 triple mutant (A113S, A208E, F260Y)” value [10] was “no detectable activation”, the EC50 [4, 14] was ~10 µM and 10 µM and the EC50 [6, 20] was 155 ± 21 µM. The EC50 [6, 21] was > 100 µM and the EC50 [7, 15] was 23 ± 24 µM.
